From PubChem BioAssay (NCI)
Where “and” joins values, the source holds several entries; their conditions need not be identical. Equal entries are not always repeated.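 Assay format: 96-well plates, 48-hour exposure. GI50 marks 50% less growth. TGI is the concentration that stops growth completely.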

Assays:
Assay in all cases: inhibition of tumour cell growth, NCI panel, 48 h
[1] = test system: SF-268 CNS
[2] = test system: HS 578T breast
[3] = test system: NCI-H460 lung
[4] = test system: NCI-H522 lung
[5] = test system: SR leukemia
[6] = test system: BT-549 breast
[7] = test system: TK-10 renal
[8] = test system: OVCAR-3 ovarian
[9] = test system: MCF7 breast
[10] = test system: HOP-92 NSCLC

| Compound | GI50 [1] [µM] | TGI [1] | GI50 [2] [µM] | TGI [2] | GI50 [3] [µM] | TGI [3] | GI50 [4] [µM] | TGI [4] | GI50 [5] [µM] | TGI [5] | GI50 [6] [µM] | TGI [6] [µM] | GI50 [7] [µM] | TGI [7] | GI50 [8] [µM] | TGI [8] | GI50 [9] [µM] | TGI [9] | GI50 [10] [µM] | TGI [10] |
| --- | --- | --- | --- | --- | --- | --- | --- | --- | --- | --- | --- | --- | --- | --- | --- | --- | --- | --- | --- | --- |
| Cc1[nH]c2ccccc2c1CO | 10.2 | 22.9 µM | 15.6 | 44 µM | 16.9 | 31.6 µM | 12.8 | 28.9 µM | 25.1 | > 100 µM | 18.4 | 40.3 | 21 | 67.1 µM | 5.54 | 19.6 µM | 21.3 | 51.5 µM | 14.6 | 40.9 µM |
| Nc1nc(Sc2ccc([N+](=O)[O-])c3nonc23)c2ncn(C3OC(CO)C(O)C3O)c2n1 (centres undefined) | 0.938 | 21.3 µM | 7.89 | 46.3 µM | 0.311 | 15.5 µM | 0.64 | 14.2 µM | 0.113 | > 41.2 µM | 1.6 | 18.6 | 2.42 | > 37.2 µM | 2.17 | 24.6 µM | 0.373 | 13.6 µM | 0.514 | 18.1 µM |
| Cc1nnn(C)c1-c1cnc2c3ccc(C(C)(C)O)cc3n([C@H](c3ccccc3)C3CCOCC3)c2c1 | 5.22 | > 100 µM | < 0.01 | > 100 µM | 0.966 | > 65.7 µM | < 0.01 | 20.9 µM | < 0.01 | > 100 µM | 3.61 | 24 | < 0.01 | 11 µM | 0.0271 | 14.8 µM | < 0.01 | > 100 µM | < 0.01 | 22.7 µM |
| COc1ccc(Nc2ncc(I)c(NCCCNC(=O)C3CCC3)n2)cc1 | 2.01 | 29.9 µM | 2.94 | 13.2 µM | 5.19 | 36.8 µM | 20.9 | > 100 µM | 4.91 | > 100 µM | 2.52 | 7.92 | 0.897 | 9.78 µM | 7.83 | 33.8 µM | 8.31 | > 100 µM | 3.04 | 29.2 µM |
| COc1cc(-n2cc(-c3ccc(Cl)cc3)n(-c3ccccc3)c2=O)cc(OC)c1OC | 31.2 | > 100 µM | 25.6 | > 100 µM | 14.9 | > 100 µM | 18.3 | > 76 µM | 4.48 | > 38.4 µM | 17.5 | 57.3 | 35.5 | > 100 µM | 16.3 | > 86.2 µM | 15.9 | 56 µM | 22.7 | > 100 µM |
| CCn1nc(C2CCN(C(=O)CCO)CC2)nc1-c1cnc(N)c(-c2nnc(C(C)(C)C)o2)n1 | 23.1 | > 100 µM | 0.836 | 57 µM | 3.9 | > 100 µM | 15.3 | 63.5 µM | 15.5 | > 88.4 µM | 7.28 | > 100 | 1.95 | > 100 µM | 7.81 | 38.4 µM | 0.375 | > 100 µM | 0.208 | > 100 µM |
| CCc1cc2c(c(OCC(F)(F)F)c(C(=O)NC3CCN(C(=O)CO)CC3)n2C)c(=O)n1CC(=O)c1ccccc1 | > 90.3 | > 100 µM | 34.4 | > 100 µM | > 57.8 | > 100 µM | > 95.9 | > 100 µM | 50.7 | > 100 µM | 51.3 | > 100 | > 100 | > 100 µM | > 100 | > 100 µM | 44 | > 100 µM | > 62.4 | > 100 µM |
| CCCN(CCC)c1ccc(/C=N/NC(=O)c2cccnc2)c(C)c1 | 13.9 | 31.2 µM | 13.9 | 48.2 µM | 14.2 | 28.3 µM | 12.6 | 30 µM | 8.15 | 41.7 µM | 15.2 | 29.3 | 16 | 38.5 µM | 13 | 27.8 µM | 17.7 | 36.8 µM | 11.3 | 26.2 µM |
| CC(=O)O[C@@H]1c2c(c3c(=O)c4cccc(O)c4c(=O)c=3c2=[N+]=[N-])[C@H](OC(C)=O)[C@@H](OC(C)=O)[C@]1(C)O | 0.391 | 0.914 µM and 1.67 µM | 0.575 | 0.881 µM and 3.54 µM | 0.149 | 1.9 µM and 0.352 µM | 0.0693 | 0.776 µM and 0.201 µM | 0.0582 | 0.37 µM and 0.36 µM | – | 1.33 | 0.191 | 1.14 µM and 0.365 µM | 0.407 | 1.23 µM and 1.4 µM | 0.142 | 1.11 µM and 0.291 µM | 0.172 | 1.84 µM and 0.355 µM |
| Oc1ccc(N=Nc2ccc(Br)cc2)c(O)c1 | 5.84 | > 100 µM | 2.2 | 6.77 µM | 3.29 | 21.5 µM | 1.74 | 6.53 µM | 0.337 | 2.54 µM | 2.67 | 8.3 | 4.95 | 24.8 µM | 3.2 | 14.7 µM | 2.2 | 54.3 µM | 1.1 | 6.96 µM |
| COC(=O)c1c2c(c(C)[n+]([O-])c1C)C(=O)C(NCc1ccccc1)=CC2=O | 2.81 | 9.69 µM | 7 | 82.4 µM | 2.74 | 10.9 µM | 2.45 | 7.62 µM | 3 | 31.4 µM | 4.19 | 16 | 4.48 | 18.7 µM | 0.613 | 3.67 µM | 1.65 | 3.73 µM | 2.8 | 6.61 µM |
| CC(C)(C)c1cc(C[P+](c2ccccc2)(c2ccccc2)c2ccccc2)cc(C(C)(C)C)c1O | 0.429 | 15 µM | 0.51 | 17.1 µM | 0.413 | 2.59 µM | 0.33 | 1.91 µM | 0.403 | 2.5 µM | 0.33 | 0.898 | 0.486 | 3.25 µM | 0.359 | 10.2 µM | 0.27 | 4.04 µM | 0.155 | 0.555 µM |
